Experimental data published in PubChem BioAssay AID248 (DTP/NCI, 2004).
“And” between values parts separate entries of the source, which are not always exact repeats. Equal values may be shown once. Toxic doses and inconclusive results are not listed. Rule as the data show it: active = T/C of 150% or more; inactive = T/C below 125%.

System: L1210 leukemia ip in BDF1 mice, survival T/C
Test: NCI In Vivo Anticancer Drug Screen. Data for tumor model L1210 Leukemia (intraperitoneal) in B6D2F1 (BDF1) mice
Conditions: endpoint: mean survival time, higher = longer survival
How it was run: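 Tumor cells were implanted, animals were treated, and survival was followed. The result divides the treated measurement by the vehicle-control measurement.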

[1] = dose: 100.0 mg/kg/injection, schedule: Q01DX001 (ip), vehicle: saline
[2] = dose: 100.0 mg/kg/injection, schedule: Q01DX009 (ip), vehicle: Klucel (hydroxypropylcellulose) (HPC)
[3] = dose: 200.0 mg/kg/injection, schedule: Q01DX001 (ip), vehicle: saline
[4] = dose: 200.0 mg/kg/injection, schedule: Q01DX009 (ip), vehicle: Klucel (hydroxypropylcellulose) (HPC)
[5] = dose: 400.0 mg/kg/injection, schedule: Q01DX001 (ip), vehicle: saline
[6] = dose: 400.0 mg/kg/injection, schedule: Q01DX009 (ip), vehicle: Klucel (hydroxypropylcellulose) (HPC)
[7] = dose: 100.0 mg/kg/injection, schedule: Q04DX002 (ip), vehicle: Klucel (hydroxypropylcellulose) (HPC)
[8] = dose: 200.0 mg/kg/injection, schedule: Q04DX002 (ip), vehicle: Klucel (hydroxypropylcellulose) (HPC)
[9] = dose: 400.0 mg/kg/injection, schedule: Q04DX002 (ip), vehicle: Klucel (hydroxypropylcellulose) (HPC)
[10] = dose: 75.0 mg/kg/injection, schedule: Q01DX001 (ip), vehicle: saline
[11] = dose: 150.0 mg/kg/injection, schedule: Q01DX001 (ip), vehicle: saline
[12] = dose: 50.0 mg/kg/injection, schedule: Q01DX009 (ip), vehicle: saline
[13] = dose: 100.0 mg/kg/injection, schedule: Q01DX009 (ip), vehicle: saline with Tween-80
[14] = dose: 200.0 mg/kg/injection, schedule: Q01DX009 (ip), vehicle: saline with Tween-80
[15] = dose: 400.0 mg/kg/injection, schedule: Q01DX009 (ip), vehicle: saline with Tween-80
[16] = dose: 12.5 mg/kg/injection, schedule: Q01DX009 (ip), vehicle: saline
[17] = dose: 12.5 mg/kg/injection, schedule: Q04DX003 (ip), vehicle: saline
[18] = dose: 50.0 mg/kg/injection, schedule: Q04DX003 (ip), vehicle: saline
[19] = dose: 25.0 mg/kg/injection, schedule: Q04DX003 (ip), vehicle: saline

Measured: T/C

Cc1[nH]c(N)nc(=S)c1CCCNc1ccc(C(=O)NC(CCC(=O)O)C(=O)O)cc1 (stereo unspecified)
inactive: dose: 50.0 mg/kg/injection, schedule: Q01DX001 (ip), vehicle: saline 104 % of control | [1] 98 % of control | [2] 93 % of control | dose: 100.0 mg/kg/injection, schedule: Q04DX003 (ip), vehicle: Klucel (hydroxypropylcellulose) (HPC) 93 % of control | [3] 101 % of control | [4] 104 % of control | dose: 200.0 mg/kg/injection, schedule: Q04DX003 (ip), vehicle: Klucel (hydroxypropylcellulose) (HPC) 93 % of control | [5] 98 % of control | [6] 98 % of control | dose: 400.0 mg/kg/injection, schedule: Q04DX003 (ip), vehicle: Klucel (hydroxypropylcellulose) (HPC) 88 % of control

NC(=O)N/N=C/c1ccc([N+](=O)[O-])cc1
inactive: [7] 96 % of control | [8] 110 % of control | [9] 107 % of control

C\C(=C/C(=N/N=C/c1ccco1)c1ccccc1)c1ccccc1
inactive: [10] 103 % of control | [11] 104 % of control

c1c(NC2=NCCO2)cc2c3c1CCCN3CCC2
inactive: [12] 95 % of control

BrC(Br)c1ccc(C(Br)Br)cc1
inactive: dose: 100.0 mg/kg/injection, schedule: Q04DX003 (ip), vehicle: saline with Tween-80 94 % of control | dose: 200.0 mg/kg/injection, schedule: Q04DX003 (ip), vehicle: saline with Tween-80 100 % of control | dose: 400.0 mg/kg/injection, schedule: Q04DX003 (ip), vehicle: saline with Tween-80 94 % of control

CCCC(CCC)CCCCC(CCC)CCC
inactive: [10] 96 % of control | [11] 96 % of control | dose: 300.0 mg/kg/injection, schedule: Q01DX001 (ip), vehicle: saline 94 % of control

CC/C(I)=C(/CC)S(=O)(=O)c1ccc(C)cc1
inactive: [1] 101 % of control | [13] 98 % of control | [3] 103 % of control | [14] 102 % of control | [5] 111 % of control | [15] 98 % of control

COC(=O)c1cc2ccccc2c2ccccc12
inactive: [13] 94 % of control | [14] 91 % of control | [15] 87 % of control

NC(=S)N/N=C/c1ccc(Cl)s1
inactive: dose: 25.0 mg/kg/injection, schedule: Q04DX002 (ip), vehicle: Klucel (hydroxypropylcellulose) (HPC) 95 % of control | dose: 50.0 mg/kg/injection, schedule: Q04DX002 (ip), vehicle: Klucel (hydroxypropylcellulose) (HPC) 95 % of control | [7] 98 % of control and 100 % of control

C/C=C\C=N\NC(=O)C(=O)N/N=C/C=C\C
inactive: [7] 97 % of control | [8] 91 % of control | [9] 112 % of control

CCCCCCCCCCOC(=O)c1ccccn1
inactive: [1] 93 % of control | [3] 87 % of control

CN(C)CC/C=C1\c2ccccc2Sc2ccc(C(F)(F)F)cc21
inactive: dose: 0.78 mg/kg/injection, schedule: Q01DX009 (ip), vehicle: saline 97 % of control | dose: 0.78 mg/kg/injection, schedule: Q04DX003 (ip), vehicle: saline 102 % of control | dose: 1.56 mg/kg/injection, schedule: Q01DX009 (ip), vehicle: saline 105 % of control | dose: 1.56 mg/kg/injection, schedule: Q04DX003 (ip), vehicle: saline 105 % of control | dose: 3.12 mg/kg/injection, schedule: Q01DX009 (ip), vehicle: saline 115 % of control | dose: 3.12 mg/kg/injection, schedule: Q04DX003 (ip), vehicle: saline 100 % of control | dose: 6.0 mg/kg/injection, schedule: Q01DX Z (ip), vehicle: carboxymethylcellulose (CMC) 111 % of control | dose: 6.25 mg/kg/injection, schedule: Q04DX003 (ip), vehicle: saline 107 % of control | dose: 9.0 mg/kg/injection, schedule: Q01DX Z (ip), vehicle: carboxymethylcellulose (CMC) 103 % of control and 108 % of control | dose: 9.0 mg/kg/injection, schedule: Q01DX Z (ip), vehicle: other 110 % of control | [16] 122 % of control | [17] 105 % of control | dose: 14.0 mg/kg/injection, schedule: Q01DX Z (ip), vehicle: carboxymethylcellulose (CMC) 100 % of control and 111 % of control | dose: 17.5 mg/kg/injection, schedule: Q01DX001 (ip), vehicle: saline 114 % of control | dose: 21.0 mg/kg/injection, schedule: Q01DX Z (ip), vehicle: carboxymethylcellulose (CMC) 103 % of control | dose: 21.0 mg/kg/injection, schedule: Q01DX Z (ip), vehicle: other 110 % of control | dose: 31.0 mg/kg/injection, schedule: Q01DX Z (ip), vehicle: carboxymethylcellulose (CMC) 110 % of control | dose: 35.0 mg/kg/injection, schedule: Q01DX001 (ip), vehicle: saline 104 % of control | [18] 120 % of control | dose: 70.0 mg/kg/injection, schedule: Q01DX001 (ip), vehicle: saline 108 % of control | dose: 140.0 mg/kg/injection, schedule: Q01DX001 (ip), vehicle: saline 123 % of control

O=c1c(Cl)c(C(Cl)(Cl)Cl)[nH]c2ccccc12
inactive: dose: 25.0 mg/kg/injection, schedule: Q01DX001 (ip), vehicle: saline with Tween-80 104 % of control | dose: 50.0 mg/kg/injection, schedule: Q01DX001 (ip), vehicle: saline with Tween-80 106 % of control

c1ccc([S][Pb]([c]2ccccc2)([c]2ccccc2)[c]2ccccc2)cc1
inactive: dose: 8.0 mg/kg/injection, schedule: Q04DX003 (ip), vehicle: saline 111 % of control | dose: 16.0 mg/kg/injection, schedule: Q04DX003 (ip), vehicle: saline 103 % of control | dose: 32.0 mg/kg/injection, schedule: Q04DX003 (ip), vehicle: saline 122 % of control

COc1ccc(C)cc1NC(=O)OCCOc1ccc(C(C)(C)C)cc1
inactive: dose: 50.0 mg/kg/injection, schedule: Q01DX009 (ip), vehicle: saline with Tween-80 90 % of control | [13] 90 % of control | [14] 90 % of control

Cc1ccnc(NC(=O)Nc2cc(C)ccc2C)c1
inactive: [2] 94 % of control | [4] 91 % of control | [6] 92 % of control

CC(=O)N1CCC(CC[P+](c2ccccc2)(c2ccccc2)c2ccccc2)CC1
inactive: [17] 101 % of control | [19] 96 % of control | [18] 93 % of control

CCN(CC)CCCOC(=O)/C=C/c1c(C)[nH]c(=O)[nH]c1=O
inactive: dose: 6.25 mg/kg/injection, schedule: Q01DX009 (ip), vehicle: saline 106 % of control | [16] 97 % of control | [17] 102 % of control | dose: 25.0 mg/kg/injection, schedule: Q01DX009 (ip), vehicle: saline 96 % of control | [19] 103 % of control | [12] 103 % of control | [18] 116 % of control
